Assays:
PI3Kα = PI3Kα (Homo sapiens (Human), UniProt P42336); assay: Inhibition of PI3Kα efficacy assay (ADP-Glo kinase assay); type: biochemical; settings: Table 4; read-out: PI3Kα inhibitory activity (IC50)
Outline: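 Eight five-fold dilutions of compound (2 mM DMSO stock) tested; kinase reaction with PI and ATP ran 60 min at RT, followed by ADP-Glo and detection reagent steps of 40 min each. Four-parameter logistic fitting gave IC50 values.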

[1] = test system: NCI-H358 cells (KRAS G12C mutant); assay: NCI-H358 cell proliferation inhibition (CellTiter-Glo); type: cell-based; settings: Homo sapiens, NCI-H358, 72 h; H358 cells (G12C mutation), 3 days, Table 6; read-out: NCI-H358 (IC50)
[2] = test system: MIA PaCa-2 cells (KRAS G12C mutant); assay: MIA PaCa-2 cell anti-proliferation (CellTiter-Glo); type: cell-based; settings: Homo sapiens, 72 h; MIA Paca-2 cells, 3 days, Table 7; read-out: MIA PaCa-2 (IC50)
Description: The number of viable cells was determined using the CellTiter-Glo® assay to evaluate the anti-proliferation efficacy of compounds. […] The compounds were serially diluted 4-fold in DMSO to obtain 9 concentrations, and then further diluted with DMEM (10% FBS+2.5% horse serum+1% penicillin/streptomycin) cell culture medium to obtain the working solutions (2×), 15 μL of each working solution was added to the cell culture supernatant in each well, and the cells were further incubated for 3 days at 37° C. with 5% CO2. The plate was then equilibrated with CellTiter-Glo® reagent at room temperature (25° C.) for 30 minutes. After adding 25 μL of CellTiter-Glo®, reagent, the cells were thoroughly mixed with the CellTiter-Glo® reagent using a microplate shaker for 2 minutes, and then incubated at room temperature for at least 30 minutes. […] Data were analyzed using GraphPad Prism for IC50 values (Note: The negative control refers to the group without inhibitor).

Chain of PI3Kα (P42336 whole entry): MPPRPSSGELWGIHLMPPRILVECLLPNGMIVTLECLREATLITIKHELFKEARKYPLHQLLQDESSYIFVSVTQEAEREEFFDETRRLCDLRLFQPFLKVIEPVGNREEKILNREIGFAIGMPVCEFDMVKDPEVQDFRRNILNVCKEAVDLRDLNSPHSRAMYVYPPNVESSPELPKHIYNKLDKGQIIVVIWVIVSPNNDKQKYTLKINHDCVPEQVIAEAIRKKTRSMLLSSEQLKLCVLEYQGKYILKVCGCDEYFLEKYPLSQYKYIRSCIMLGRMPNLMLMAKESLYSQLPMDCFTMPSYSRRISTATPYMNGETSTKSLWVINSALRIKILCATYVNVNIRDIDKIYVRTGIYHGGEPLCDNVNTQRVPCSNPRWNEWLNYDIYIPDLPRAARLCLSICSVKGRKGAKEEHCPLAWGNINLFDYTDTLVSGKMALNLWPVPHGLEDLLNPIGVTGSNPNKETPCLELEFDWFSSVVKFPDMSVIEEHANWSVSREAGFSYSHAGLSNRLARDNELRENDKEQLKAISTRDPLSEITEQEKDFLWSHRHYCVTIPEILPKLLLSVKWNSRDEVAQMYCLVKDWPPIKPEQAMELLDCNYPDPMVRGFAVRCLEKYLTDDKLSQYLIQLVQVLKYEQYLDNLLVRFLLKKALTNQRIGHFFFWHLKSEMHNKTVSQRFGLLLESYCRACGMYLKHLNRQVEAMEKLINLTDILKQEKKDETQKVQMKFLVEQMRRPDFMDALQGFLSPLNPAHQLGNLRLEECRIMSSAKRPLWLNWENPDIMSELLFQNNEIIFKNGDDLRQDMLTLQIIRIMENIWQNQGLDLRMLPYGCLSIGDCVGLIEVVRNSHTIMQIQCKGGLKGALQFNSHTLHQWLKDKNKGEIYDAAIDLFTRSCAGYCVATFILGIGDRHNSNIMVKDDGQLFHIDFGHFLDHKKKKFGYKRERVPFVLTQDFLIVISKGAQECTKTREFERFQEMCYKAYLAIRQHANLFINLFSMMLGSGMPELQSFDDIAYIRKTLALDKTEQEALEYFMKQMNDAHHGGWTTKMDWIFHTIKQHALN
Chain of PI3Kα (P27986 whole entry partner): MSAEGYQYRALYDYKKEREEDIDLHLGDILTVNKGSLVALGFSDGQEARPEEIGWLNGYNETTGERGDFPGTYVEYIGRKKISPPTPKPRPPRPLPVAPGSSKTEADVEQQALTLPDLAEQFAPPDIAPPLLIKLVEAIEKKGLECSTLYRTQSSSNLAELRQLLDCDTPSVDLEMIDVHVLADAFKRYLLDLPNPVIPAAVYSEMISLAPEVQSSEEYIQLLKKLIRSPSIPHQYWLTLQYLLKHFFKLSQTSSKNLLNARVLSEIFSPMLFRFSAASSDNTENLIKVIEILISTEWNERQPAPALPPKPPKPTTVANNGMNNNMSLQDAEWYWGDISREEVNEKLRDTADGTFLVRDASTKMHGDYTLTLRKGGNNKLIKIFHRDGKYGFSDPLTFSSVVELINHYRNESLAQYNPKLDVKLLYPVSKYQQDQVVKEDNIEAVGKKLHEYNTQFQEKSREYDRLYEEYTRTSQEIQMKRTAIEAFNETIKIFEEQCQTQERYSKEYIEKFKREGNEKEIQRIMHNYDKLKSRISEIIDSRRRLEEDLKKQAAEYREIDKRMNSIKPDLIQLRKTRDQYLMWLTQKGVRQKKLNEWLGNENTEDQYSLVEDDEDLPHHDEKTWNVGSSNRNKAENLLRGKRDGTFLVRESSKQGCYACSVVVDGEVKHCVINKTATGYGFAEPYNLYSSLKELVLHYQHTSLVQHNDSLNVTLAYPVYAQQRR

| IC50 (PI3Kα) | IC50 [1] | IC50 [2] | SMILES |
| --- | --- | --- | --- |
| 2.3 nM | 115 nM | 44.1 nM | COc1ncc(-c2ccc3ncnc(N4CCN(C(=O)/C=C\C(=O)C(F)(F)F)CC4)c3c2)cc1NS(=O)(=O)c1ccc(F)cc1F [Example 248, (Z)-2,4-difluoro-N-(2-methoxy-5-(4-(4-(5,5,5-trifluoro-4-oxopent-2-enoyl)piperazin-1-yl)quinazolin-6-yl)pyridin-3-yl)benzenesulfonamide] |
| 2.2 nM | 42.9 nM | 60 nM | COc1ncc(-c2ccc3ncnc(N4CCN(C(=O)/C=C/C(C)=O)CC4)c3n2)cc1NS(=O)(=O)c1ccc(C(F)(F)F)cc1F [Example 221, (E)-2-fluoro-N-(2-methoxy-5-(4-(4-(4-oxopent-2-enoyl)piperazin-1-yl)pyrido[3,2-d]pyrimidin-6-yl)pyridin-3-yl)-4-(trifluoro-methyl)benzene-sulfonamide] |
| 9.3 nM | 782 nM | 827 nM | CC(=O)/C=C/C(=O)N1CCN(c2ncnc3ccc(-c4cnc(C(F)(F)F)c(NS(=O)(=O)c5ccc(F)cc5F)c4)cc23)CC1 [Example 192, (E)-2,4-difluoro-N-(5-(4-(4-(4-oxopent-2-enoyl)piperazin-1-yl)quinazolin-6-yl)-2-(tri-fluoromethyl)pyridin-3-yl) benzene-sulfonamide] |
| 9.8 nM | 14.3 nM | 16.4 nM | COc1ncc(-c2ccc3ncnc(N4CCN(C(=O)/C=C/CF)CC4)c3n2)cc1NS(=O)(=O)c1c(F)cccc1F [Example 213, (E)-2,6-difluoro-N-(5-(4-(4-(4-fluorobut-2-enoyl)piperazin-1-yl)pyrido[3,2-d]pyrimidine-6-yl)-2-methoxy-pyridin-3-yl) benzene-sulfonamide] |
| 14.9 nM | 497 nM | 827 nM | COc1ncc(-c2cc3c(N4CCN(C(=O)/C=C/C(C)=O)CC4)ncnc3cn2)cc1NS(=O)(=O)c1ccc(F)cc1F [Example 245, (E)-2,4-difluoro-N-(2-methoxy-5-(4-(4-(4-oxopent-2-enoyl)piperazin-1-yl)pyrido[3,4-d]pyrimidin-6-yl)pyridin-3-yl)benzenesulfonamide] |
| 5.2 nM | 58.6 nM | 71.6 nM | COc1ncc(-c2ccc3ncnc(C4=CCN(C(=O)/C=C/C(C)=O)CC4)c3n2)cc1NS(=O)(=O)c1sc(C)nc1C [Example 237, (E)-N-(2-methoxy-5-(4-(1-(4-oxopent-2-enoyl)-1,2,3,6-tetrahydropyridin-4-yl)pyrido[3,2-d]pyrimidin-6-yl)pyridin-3-yl)-2,4-dimethylthiazole-5-sulfonamide] |
| 2.4 nM | 10 nM | 6.3 nM | COC/C=C/C(=O)N1CCN(c2ncnc3ccc(-c4cnc(OC)c(NS(=O)(=O)c5c(F)cccc5F)c4)nc23)CC1 [Example 215, (E)-2,6-difluoro-N-(2-methoxy-5-(4-(4-(4-methoxybut-2-enoyl)piperazin-1-yl)pyridino [3,2-d]pyrimidin-6-yl)pyridin-3-yl) benzene-sulfonamide] |
| 1.8 nM | 114 nM | 45.2 nM | COc1ncc(-c2ccc3ncnc(N4CCN(C(=O)/C(C#N)=C/C(C)(C)C)CC4)c3c2)cc1NS(=O)(=O)c1ccc(F)cc1F [Example 180, (E)-N-(5-(4-(4-(2-cyano-4,4-dimethyl-pent-2-enoyl)piperazin-1-yl)quinazolin-6-yl)-2-methoxy-pyridin-3-yl)-2,4-difluoro-benzene-sulfonamide] |
| 30.6 nM | 1060 nM | 1040 nM | CC(=O)/C=C/C(=O)N1CCN(c2ncnc3ccc(-c4cnc(OC(F)F)c(NS(=O)(=O)c5ccc(F)cc5F)c4)cc23)CC1 [Example 208, (E)-N-(2-(difluoromethoxy)-5-(4-(4-(4-oxopent-2-enoyl)piperazin-1-yl)quinazoline-6-yl)pyridin-3-yl)-2,4-difluorobenzenesulfonamide] |
| 1.7 nM | 186 nM | 155 nM | COc1ncc(-c2cc(F)c3ncnc(N4CCN(C(=O)/C=C/C(C)=O)CC4)c3c2)cc1NS(=O)(=O)c1ccc(F)cc1F [Example 196, (E)-2,4-difluoro-N-(5-(8-fluoro-4-(4-(4-oxopent-2-enoyl)piperazin-1-yl)quinazoline-6-yl)-2-methoxypyridin-3-yl)benzenesulfonamide] |
| – | 40 nM | 73.3 nM | C=CS(=O)(=O)N1CCN(c2ncnc3ccc(-c4cnc(OC)c(NS(=O)(=O)c5ccc(F)cc5F)c4)cc23)CC1 [Example 207, 2,4-difluoro-N-(2-methoxy-5-(4-(4-(vinylsulfonyl)piperazin-1-yl)quinazolin-6-yl)pyridin-3-yl)benzenesulfonamide] |
| 3.8 nM | 15.2 nM | 14 nM | CCC(=O)/C=C/C(=O)N1CCN(c2ncnc3ccc(-c4cnc(OC)c(NS(=O)(=O)c5c(F)cccc5F)c4)nc23)CC1 [Example 212, (E)-2,6-difluoro-N-(2-methoxy-5-(4-(4-(4-oxohex-2-enoyl)piperazin-1-yl)pyrido[3,2-d]pyrimidin-6-yl)pyridin-3-yl) benzene-sulfonamide] |
| 9.5 nM | 112 nM | 108 nM | CCOc1ncc(-c2ccc3ncnc(N4CCN(C(=O)/C=C/C(C)=O)CC4)c3c2)cc1NS(=O)(=O)c1ccccc1F [Example 190, (E)-N-(2-ethoxy-5-(4-(4-(4-oxopent-2-enoyl)piperazin-1-yl)quinazolin-6-yl)pyridin-3-yl)-2-fluoro-benzene-sulfonamide] |
| 2.1 nM | 12.6 nM | 6.3 nM | C=CC(=O)N1CCN(c2ncnc3ccc(-c4cnc(OC)c(NS(=O)(=O)c5c(F)cccc5F)c4)nc23)CC1 [Example 214, N-(5-(4-(4-acryloyl-piperazin-1-yl)pyrido[3,2-d]pyrimidin-6-yl)-2-methoxy-pyridin-3-yl)-2,6-difluoro-benzene-sulfonamide] |
| 3.3 nM | 530 nM | 865 nM | CC(=O)/C=C/C(=O)N1CCN(c2ncnc3ccc(-c4cnc(C)c(NS(=O)(=O)c5ccc(F)cc5F)c4)cc23)CC1 [Example 188, (E)-2,4-difluoro-N-(2-methyl-5-(4-(4-(4-oxopent-2-enoyl)piperazin-1-yl)quinazolin-6-yl)pyridin-3-yl)benzene-sulfonamide] |
| 1 nM | 56 nM | 47.7 nM | COc1ncc(-c2ccc3ncnc(N4CCN(C(=O)/C=C/C(F)(F)F)CC4)c3n2)cc1NS(=O)(=O)c1c(F)cccc1F [Example 216, (E)-2,6-difluoro-N-(2-methoxy-5-(4-(4-(4,4,4-trifluorobut-2-enoyl)piperazin-1-yl)pyridino [3,2-d]pyrimidin-6-yl)pyridin-3-yl)benzene-sulfonamide] |
| 2.8 nM | 728 nM | 782 nM | CC(=O)/C=C/C(=O)N1CCN(c2ncnc3ccc(-c4cnc(OC(F)(F)F)c(NS(=O)(=O)c5ccc(F)cc5F)c4)cc23)CC1 [Example 194, (E)-2,4-difluoro-N-(5-(4-(4-(4-oxopent-2-enoyl)piperazin-1-yl)quinazolin-6-yl)-2-(trifluoromethoxy)pyridin-3-yl)benzenesulfonamide] |
| 2.4 nM | 83.5 nM | 76.2 nM | CCOc1ncc(-c2ccc3ncnc(N4CCN(C(=O)/C=C/C(C)=O)CC4)c3n2)cc1NS(=O)(=O)c1ccccc1F [Example 227, (E)-N-(2-ethoxy-5-(4-(4-(4-oxopent-2-enoyl)piperazin-1-yl)pyrido[3,2-d]pyrimidin-6-yl)pyridin-3-yl)-2-fluorobenzene-sulfonamide] |
| 3.1 nM | 65.8 nM | 79.5 nM | COc1ncc(-c2ccc3ncnc(C4=CCN(C(=O)/C=C/C(C)=O)CC4)c3n2)cc1NS(=O)(=O)c1ccccc1F [Example 238, (E)-2-fluoro-N-(2-methoxy-5-(4-(1-(4-oxopent-2-enoyl)-1,2,3,6-tetrahydropyridin-4-yl)pyrido[3,2-d]pyrimidin-6-yl)pyridin-3-yl)benzenesulfonamide] |
| 6.4 nM | 55 nM | 70.2 nM | COc1ncc(-c2ccc3ncnc(C4=CCN(C(=O)/C=C/C(C)=O)CC4)c3n2)cc1NS(=O)(=O)c1c(F)cccc1F [Example 239, (E)-2,6-difluoro-N-(2-methoxy-5-(4-(1-(4-oxopent-2-enoyl)-1,2,3,6-tetrahydropyridin-4-yl)pyrido[3,2-d]pyrimidin-6-yl)pyridin-3-yl)benzenesulfonamide] |
| – | – | 9.1 nM | COc1ncc(-c2ccc3ncnc(N4CCN(C(=O)/C=C/C(C)=O)CC4)c3n2)cc1NS(=O)(=O)c1ccc(F)cc1Cl [Example 135, (E)-2-chloro-4-fluoro-N-(2-methoxy-5-(4-(4-(4-oxopent-2-enoyl)piperazin-1-yl)pyrido[3,2-d]pyrimidin-6-yl)pyridin-3-yl)benzenesulfonamide] |

Source: patent publication US20250145589A1, “PYRIDINE DERIVATIVE AND USE THEREOF” (SICHUAN HUIYU PHARMACEUTICAL CO., LTD., priority 2021, published 2025)
